The MIC is the smallest concentration in the dilution series that meets the test's criterion for growth inhibition. Higher therefore signals a less susceptible organism.

SMILES strings stand for the structures. Converted amounts (≈) assume the structure as drawn.

This assay deals with Mycobacterium tuberculosis. The assay is described as follows: Antimycobacterial activity against log phase culture of Mycobacterium tuberculosis H37Rv by agar dilution method. In kind it is functional. For orientation: In agar dilution, organisms are placed on agar that contains the substance at set levels.
Molecule `O=C1c2cccc3cccc(c23)[C@]12N[C@@H](c1ccccc1)[C@H](c1ccc(Cl)cc1)[C@]21CCC/C(=C\c2ccc(Cl)cc2)C1=O` had an MIC of 6.25 µg/mL (≈ 10.2 µM).

As for `O=C1c2cccc3cccc(c23)[C@]12N1CCC[C@H]1[C@H](c1ccc(Cl)cc1)[C@]21CCC/C(=C\c2ccc(Cl)cc2)C1=O`, inhibition of growth (MIC) required 1.78 µg/mL (≈ 3.08 µM).

The molecule `Cc1ccc(/C=C2\CCC[C@@]3(C2=O)[C@@H](c2ccc(C)cc2)[C@H](c2ccccc2)N[C@@]32C(=O)c3cccc4cccc2c34)cc1` came in with an MIC of 6.25 µg/mL (≈ 10.9 µM).

In the case of `Cc1ccc(/C=C2\CCC[C@@]3(C2=O)[C@@H](c2ccc(C)cc2)[C@@H]2CCCN2[C@@]32C(=O)c3cccc4cccc2c34)cc1`, the MIC was found to be 6.25 µg/mL (≈ 11.6 µM).

As to `COc1ccc(/C=C2\CCC[C@@]3(C2=O)[C@@H](c2ccc(OC)cc2)CN(C)[C@@]32C(=O)c3cccc4cccc2c34)cc1`, the MIC was found to be 25 µg/mL (≈ 46 µM).

`O=C1c2cccc3cccc(c23)[C@]12N1CCC[C@H]1[C@H](c1ccccc1Cl)[C@]21CCC/C(=C\c2ccccc2Cl)C1=O` registered an MIC of 3.13 µg/mL (≈ 5.41 µM).

For the molecule `O=C1c2cccc3cccc(c23)[C@]12N[C@@H](c1ccccc1)[C@H](c1ccccc1Cl)[C@]21CCC/C(=C\c2ccccc2Cl)C1=O`, 0.78 µg/mL (≈ 1.27 µM) was the least that counted as inhibitory (MIC).

Turning to `O=C1c2cccc3cccc(c23)[C@]12N1CSC[C@H]1[C@H](c1ccc(F)cc1)[C@]21CCC/C(=C\c2ccc(F)cc2)C1=O`, the MIC turned out to be 1.76 µg/mL (≈ 3.12 µM).

On to `CN1C[C@H](c2ccc(Cl)cc2)[C@]2(CCC/C(=C\c3ccc(Cl)cc3)C2=O)[C@]12C(=O)c1cccc3cccc2c13`, for which the lowest concentration to inhibit growth (MIC) was 12.5 µg/mL (≈ 22.6 µM).

The molecule `CN1C[C@H](c2ccccc2)[C@]2(CCC/C(=C\c3ccccc3)C2=O)[C@]12C(=O)c1cccc3cccc2c13` returned an MIC of 12.5 µg/mL (≈ 25.8 µM).

As for `O=C1c2cccc3cccc(c23)[C@]12N1CSC[C@H]1[C@H](c1ccc(Cl)cc1)[C@]21CCC/C(=C\c2ccc(Cl)cc2)C1=O`, the lowest concentration to inhibit growth (MIC) was 6.25 µg/mL (≈ 10.5 µM).

As to `O=C1c2cccc3cccc(c23)[C@]12N[C@@H](c1ccccc1)[C@H](c1ccc(F)cc1)[C@]21CCC/C(=C\c2ccc(F)cc2)C1=O`, the MIC was determined as 6.25 µg/mL (≈ 10.7 µM).

`Cc1ccccc1/C=C1\CCC[C@@]2(C1=O)[C@@H](c1ccccc1C)[C@@H]1CSCN1[C@@]21C(=O)c2cccc3cccc1c23` returned an MIC of 0.78 µg/mL (≈ 1.4 µM).

For the molecule `Cc1ccc(/C=C2\CCC[C@@]3(C2=O)[C@@H](c2ccc(C)cc2)CN(C)[C@@]32C(=O)c3cccc4cccc2c34)cc1`, 25 µg/mL (≈ 48.9 µM) was the least that counted as inhibitory (MIC).

Consider `Cc1ccccc1/C=C1\CCC[C@@]2(C1=O)[C@@H](c1ccccc1C)CN(C)[C@@]21C(=O)c2cccc3cccc1c23`, for which it took 12.5 µg/mL (≈ 24.4 µM) to inhibit growth (MIC).

`CN1C[C@H](c2cccc(F)c2)[C@]2(CCC/C(=C\c3cccc(F)c3)C2=O)[C@]12C(=O)c1cccc3cccc2c13` registered an MIC of 12.5 µg/mL (≈ 24.1 µM).

With `O=C1c2cccc3cccc(c23)[C@]12N[C@@H](c1ccccc1)[C@H](c1ccccc1)[C@]21CCC/C(=C\c2ccccc2)C1=O`, the MIC amounted to 3.13 µg/mL (≈ 5.74 µM).

`O=C1c2cccc3cccc(c23)[C@]12N[C@@H](c1ccccc1)[C@H](c1ccc(Cl)cc1Cl)[C@]21CCC/C(=C\c2ccc(Cl)cc2Cl)C1=O` yielded a minimal inhibitory concentration (MIC) of 0.4 µg/mL (≈ 0.585 µM).

Regarding `O=C1c2cccc3cccc(c23)[C@]12N1CSC[C@H]1[C@H](c1ccccc1Cl)[C@]21CCC/C(=C\c2ccccc2Cl)C1=O`, the MIC was 0.78 µg/mL (≈ 1.31 µM).

`O=C1c2cccc3cccc(c23)[C@]12N1CCC[C@H]1[C@H](c1ccc(F)cc1)[C@]21CCC/C(=C\c2ccc(F)cc2)C1=O` gave an MIC of 1.78 µg/mL (≈ 3.26 µM).

As to `CN1C[C@H](c2ccc(Cl)cc2Cl)[C@]2(CCC/C(=C\c3ccc(Cl)cc3Cl)C2=O)[C@]12C(=O)c1cccc3cccc2c13`, it took 3.13 µg/mL (≈ 5.04 µM) to inhibit growth (MIC).

For the molecule `Cc1ccccc1/C=C1\CCC[C@@]2(C1=O)[C@@H](c1ccccc1C)[C@H](c1ccccc1)N[C@@]21C(=O)c2cccc3cccc1c23`, 1.78 µg/mL (≈ 3.1 µM) was the least that counted as inhibitory (MIC).

In the case of `O=C1c2cccc3cccc(c23)[C@]12N1CSC[C@H]1[C@H](c1ccc(Cl)cc1Cl)[C@]21CCC/C(=C\c2ccc(Cl)cc2Cl)C1=O`, inhibition of growth (MIC) required 0.4 µg/mL (≈ 0.601 µM).

Consider `CN1C[C@H](c2cccc3ccccc23)[C@]2(CCC/C(=C\c3cccc4ccccc34)C2=O)[C@]12C(=O)c1cccc3cccc2c13`, for which the MIC amounted to 6.25 µg/mL (≈ 10.7 µM).

`Cc1ccc(/C=C2\CCC[C@@]3(C2=O)[C@@H](c2ccc(C)cc2)[C@@H]2CSCN2[C@@]32C(=O)c3cccc4cccc2c34)cc1` showed an MIC of 6.25 µg/mL (≈ 11.2 µM).

As for `O=C1c2cccc3cccc(c23)[C@]12N1CCC[C@H]1[C@H](c1ccccc1)[C@]21CCC/C(=C\c2ccccc2)C1=O`, the MIC came out at 12.5 µg/mL (≈ 24.5 µM).

In the case of `O=C1c2cccc3cccc(c23)[C@]12N1CSC[C@H]1[C@H](c1ccccc1)[C@]21CCC/C(=C\c2ccccc2)C1=O`, the MIC is 6.25 µg/mL (≈ 11.8 µM).

In turn, `CN1C[C@H](c2ccccc2Cl)[C@]2(CCC/C(=C\c3ccccc3Cl)C2=O)[C@]12C(=O)c1cccc3cccc2c13` gave an MIC of 6.25 µg/mL (≈ 11.3 µM).
